Reference: PubChem BioAssay AID520 (NMMLSC, 2006)
Calls of active or inactive are those of the source. How the calls were made is not given here.

Target: N-formyl peptide receptor 2 (Homo sapiens) (UniProt P25090)
Assay: FPRL1 binding inhibitor potency, dose response, cell-based, FPR counter-screen, fluorescent ligand (AID 520)
Details: FPRL1-expressing cells, fluorescent ligand binding inhibition; for Ki: measured here: FPRL1 binding Ki

N-formyl peptide receptor 2 (Homo sapiens), sequence (P25090 whole entry, looked up): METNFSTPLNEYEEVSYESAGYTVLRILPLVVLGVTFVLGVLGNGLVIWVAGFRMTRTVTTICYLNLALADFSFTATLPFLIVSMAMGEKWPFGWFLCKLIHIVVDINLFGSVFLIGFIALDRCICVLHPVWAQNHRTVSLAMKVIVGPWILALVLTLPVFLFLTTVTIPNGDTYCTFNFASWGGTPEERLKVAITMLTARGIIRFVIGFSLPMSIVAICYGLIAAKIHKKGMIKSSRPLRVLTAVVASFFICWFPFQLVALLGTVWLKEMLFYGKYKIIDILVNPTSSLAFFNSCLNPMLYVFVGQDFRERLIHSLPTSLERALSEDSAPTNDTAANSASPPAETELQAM

Row | SMILES | Ki [µM] | IC50
1 | Fc1ccc(-c2nnc3ccc(N4CCCC4)nn23)cc1 | > 40.3 | –
2 | CCOc1ccc(C2C(C(=O)c3ccco3)=C(O)C(=O)N2CCCn2ccnc2)cc1 (stereo not given) | > 40.3 | > 66.7 µM (inactive)
3 | COc1ccc(Cl)cc1-n1c(=S)sc2c(=O)[nH]c(SCC(=O)NCC3CCCO3)nc21 (stereo not given) | > 40.3 | –
4 | CC(C)CN(CC(C)C)C(=O)CS(=O)(=O)Cc1ccccc1 | > 40.3 | –
5 | CCOc1ccccc1Oc1c(C)oc2cc(OC(=O)c3ccco3)ccc2c1=O | > 40.3 | –
6 | COc1ccc(-c2cn3cccnc3n2)cc1NC(=O)C1CC1 | 4.6 | –
7 | CCn1cc(C(=O)NC2CCC(C)CC2)c(=O)c2cc(S(=O)(=O)N3CCCCC3)ccc21 (stereo not given) | > 40.3 | –
8 | O=C(O)C1CCCCC1C(=O)Nc1ccccc1Cl (stereo not given) | > 40.3 | –
9 | O=C(C1=C(O)C(=O)N(c2ncccn2)C1c1ccc(Cl)c(Cl)c1)c1ccco1 (stereo not given) | > 40.3 | > 66.7 µM (inactive)
10 | O=C(O)CC1Oc2ccc(Cl)cc2NC1=O (stereo not given) | > 40.3 | –
11 | CCSc1nnc(NC(=O)CSc2nnc(Cc3cccn3C)n2CCc2ccccc2)s1 | > 40.3 | –
12 | CCOc1cccc(/C(O)=C2/C(=O)C(=O)N(CCOC)C2c2ccc(C)o2)c1 (stereo not given) | > 40.3 | > 66.7 µM (inactive)
13 | COc1ccc(C2C(C(=O)c3ccco3)=C(O)C(=O)N2CCc2ccccc2)cc1OC (stereo not given) | > 40.3 | > 66.7 µM (inactive)
14 | O=C(Nc1ccc(Nc2ccccc2)cc1)c1ccc(Br)o1 | > 40.3 | –
15 | Cc1cccc(Nc2ccccc2C(=O)NCc2ccco2)c1C | > 40.3 | –
16 | O=S(=O)(Nc1cccc2ncccc12)c1cccs1 | > 40.3 | –
17 | Cc1nc2c(C#N)c[nH]n2c(=O)c1Cc1ccccc1 | > 40.3 | –
18 | CC1CCN(S(=O)(=O)c2ccc3c(c2)oc(=O)n3CC(=O)NCc2ccc3c(c2)OCO3)CC1 | > 40.3 | –
19 | COc1ccc(NC(=O)C(c2ccc(C)cc2)N(C)C(=O)c2cnccn2)cc1 (stereo not given) | > 40.3 | –
20 | Cc1cccc(OCC(=O)Nc2cc(C)ccc2O)c1 | > 40.3 | –
21 | CCc1cc2c(=O)c(-c3nc4ccccc4n3C)c(COCC(=O)O)oc2cc1OC(=O)C(C)(C)C | > 40.3 | –
22 | CCc1ccccc1NC(=O)C(C#N)Cc1cccnc1 (stereo not given) | > 40.3 | –
23 | CCOC(=O)c1sc(=S)n2c1[nH]c(=O)c1ccc(C(=O)OC)cc12 | > 40.3 | –

Row | SMILES | Ki [µM] | IC50
24 | COc1cccc(/C(O)=C2/C(=O)C(=O)N(Cc3cccnc3)C2c2ccco2)c1 (stereo not given) | > 40.3 | > 66.7 µM (inactive)
25 | COC(=O)COc1ccc2c(=O)c(Oc3ccccc3)c(C)oc2c1 | > 40.3 | –
26 | COc1ccc(C)cc1NC(=O)C1CCCCC1C(=O)O (stereo not given) | > 40.3 | –
27 | COC(=O)Cc1[nH]nc2c1C(C1C=CCCC1)C(C#N)=C(N)O2 (stereo not given) | > 40.3 | > 66.7 µM (inactive)
28 | Cc1ccc(C2/C(=C(/O)c3ccc(Cl)cc3)C(=O)C(=O)N2CC2CCCO2)o1 (stereo not given) | > 40.3 | > 66.7 µM (inactive)
29 | COCCN1Cc2cccc(C(=O)NCc3ccc4c(c3)OCO4)c2C1=O | > 40.3 | –
30 | CCOc1ccc(/C(O)=C2/C(=O)C(=O)N(CC3CCCO3)C2c2ccco2)cc1 (stereo not given) | > 40.3 | > 66.7 µM (inactive)
31 | Cc1ccc(Nc2ccc(C(=O)O)cc2N)cc1 | > 40.3 | –
32 | O=C1C(C23CC4CC(CC(C4)C2)C3)C(=O)N(c2ccccc2)N1c1ccccc1 | > 40.3 | > 66.7 µM (inactive)
33 | Clc1ccc(Cc2nn3c(-c4ccncc4)nnc3s2)cc1 | > 40.3 | –
34 | C=CCn1c(SCCCC)nc(O)cc1=O | > 40.3 | –
35 | CCOc1ccccc1NC(=O)CSc1nccn1-c1ccccc1 | > 40.3 | –
36 | CC1=C(C#N)C(c2ccc3ncccc3c2)C(C#N)=C(C)N1 | > 40.3 | > 66.7 µM (inactive)
37 | O=C(C1=C(O)C(=O)N(Cc2ccccc2)C1c1cccnc1)c1ccco1 (stereo not given) | > 40.3 | > 66.7 µM (inactive)
38 | CCC(SC1=Nc2ccccc2C2=NC(CC(C)C)C(=O)N12)C(=O)Nc1ccc2c(c1)OCO2 (stereo not given) | > 40.3 | –
39 | COc1cccc2cc(C(=O)C3=C(O)C(=O)N(Cc4ccco4)C3c3cccnc3)oc12 (stereo not given) | > 40.3 | > 66.7 µM (inactive)
40 | O=C(C1=C(O)C(=O)N(Cc2ccccc2)C1c1ccncc1)c1ccco1 (stereo not given) | > 40.3 | > 66.7 µM (inactive)
41 | Cc1ccc(C2/C(=C(/O)c3cnn(-c4ccccc4)c3C)C(=O)C(=O)N2CCN2CCOCC2)o1 (stereo not given) | > 40.3 | > 66.7 µM (inactive)
42 | O=C(NC1CCCC1)c1sc(=S)n2c1[nH]c(=O)c1ccccc12 | > 40.3 | –
43 | Cc1sc(NC(=O)C2CCCCC2C(=O)O)c(C(N)=O)c1-c1ccc(C(C)(C)C)cc1 (stereo not given) | > 40.3 | –
44 | O=c1cc(-c2ccccc2)nc(N2CCN(Cc3ccccc3)CC2)[nH]1 | > 40.3 | –
45 | O=C(NCCN1CCOCC1)NC1(C(F)(F)F)Oc2ccc(Cl)cc2O1 (stereo not given) | > 40.3 | –
46 | Cc1ccc(F)c(NC(=O)C2CCCCC2C(=O)O)c1 (stereo not given) | > 40.3 | –
